Activity calls are given as the source filed them. The rule behind the calls is not given here.
Columns and labels:
[1] = target: Serotonin 2 (5-HT2) receptor (Homo sapiens) (UniProt P41595+P28223+P28335)
Description: 5-hydroxytryptamine 2 receptor binding affinity

[2] = (§1) Compound was tested for functional dopamine antagonism in normalization assay (i.e. AS: reversal of apomorphine induced swimming ED50s in mg/kg orally); conditions: po
[3] = target: D(2) dopamine receptor (Homo sapiens) (UniProt P14416); assay: Dopamine D2 (spiroperidol) receptor binding affinity
[4] = target: D(1A) dopamine receptor (Homo sapiens) (UniProt P21728)
Description: Dopamine D1 (SCH-23390) receptor binding affinity

[5] = target: D(2) dopamine receptor (Homo sapiens) (UniProt P14416); assay: Compound was tested for dopamine D2 (spiroperidol) receptor binding affinity, at 5000 nM concentration
[6] = target: D(1A) dopamine receptor (Homo sapiens) (UniProt P21728); assay: Compound was tested for dopamine D1 (SCH-23390) receptor binding affinity, at 1000 nM concentration
[7] = target: D(1A) dopamine receptor (Homo sapiens) (UniProt P21728); assay: Compound was tested for dopamine D1 (SCH-23390) receptor binding affinity, at 2500 nM concentration
[8] = target: D(2) dopamine receptor (Homo sapiens) (UniProt P14416); assay: Compound was tested for dopamine D2 (spiroperidol) receptor binding affinity at 2500 nM concentration
[9] = target: D(2) dopamine receptor (Homo sapiens) (UniProt P14416); assay: Compound was tested for dopamine D2 (spiroperidol) receptor binding affinity; Not active
[10] = target: D(1A) dopamine receptor (Homo sapiens) (UniProt P21728); assay: Compound was tested for dopamine D1 (SCH-23390) receptor binding affinity; Not active
[11] = system: Rattus norvegicus; assay: as §1; conditions: po

Sequence of D(1A) dopamine receptor (Homo sapiens) (P21728 whole entry): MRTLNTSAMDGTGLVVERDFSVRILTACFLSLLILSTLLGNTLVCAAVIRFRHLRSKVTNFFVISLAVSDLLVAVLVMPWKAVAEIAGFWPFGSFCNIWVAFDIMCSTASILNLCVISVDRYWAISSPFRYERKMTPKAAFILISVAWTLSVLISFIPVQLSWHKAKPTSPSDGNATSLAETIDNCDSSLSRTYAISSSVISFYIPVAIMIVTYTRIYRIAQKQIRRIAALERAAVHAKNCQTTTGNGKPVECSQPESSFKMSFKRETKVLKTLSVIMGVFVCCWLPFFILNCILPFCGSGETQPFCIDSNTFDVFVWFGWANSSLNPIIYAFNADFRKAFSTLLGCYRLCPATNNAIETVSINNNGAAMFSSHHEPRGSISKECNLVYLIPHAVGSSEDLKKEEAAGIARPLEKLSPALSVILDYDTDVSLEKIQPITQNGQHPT
Sequence of Serotonin 2 (5-HT2) receptor (Homo sapiens) (P28223 whole entry, looked up): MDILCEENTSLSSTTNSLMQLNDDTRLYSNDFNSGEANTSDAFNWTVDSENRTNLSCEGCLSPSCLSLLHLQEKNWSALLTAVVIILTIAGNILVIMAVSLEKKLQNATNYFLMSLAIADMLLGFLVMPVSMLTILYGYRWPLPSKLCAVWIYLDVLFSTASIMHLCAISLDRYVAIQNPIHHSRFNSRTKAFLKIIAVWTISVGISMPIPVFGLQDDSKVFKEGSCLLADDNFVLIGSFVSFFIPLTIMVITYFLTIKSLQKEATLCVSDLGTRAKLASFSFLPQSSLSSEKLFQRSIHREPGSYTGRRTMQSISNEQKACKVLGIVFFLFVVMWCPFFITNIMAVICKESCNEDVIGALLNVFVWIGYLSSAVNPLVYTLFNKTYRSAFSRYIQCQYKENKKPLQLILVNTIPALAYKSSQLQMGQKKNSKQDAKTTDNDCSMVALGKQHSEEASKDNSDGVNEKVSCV
Sequence of Serotonin 2 (5-HT2) receptor (Homo sapiens) (P28335 whole entry, looked up): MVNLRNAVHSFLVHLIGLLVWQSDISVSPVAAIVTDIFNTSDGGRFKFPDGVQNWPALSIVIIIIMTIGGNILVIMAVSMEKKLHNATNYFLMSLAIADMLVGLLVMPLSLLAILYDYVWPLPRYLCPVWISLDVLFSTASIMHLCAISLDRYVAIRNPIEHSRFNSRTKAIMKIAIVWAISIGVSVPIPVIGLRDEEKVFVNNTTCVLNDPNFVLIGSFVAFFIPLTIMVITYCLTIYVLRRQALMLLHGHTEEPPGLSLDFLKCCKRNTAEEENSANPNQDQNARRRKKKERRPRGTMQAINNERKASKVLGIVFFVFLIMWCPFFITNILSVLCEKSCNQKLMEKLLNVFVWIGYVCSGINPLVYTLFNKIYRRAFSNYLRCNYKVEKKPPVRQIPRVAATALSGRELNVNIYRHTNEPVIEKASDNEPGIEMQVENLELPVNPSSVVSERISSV
Sequence of Serotonin 2 (5-HT2) receptor (Homo sapiens) (P41595 whole entry, looked up): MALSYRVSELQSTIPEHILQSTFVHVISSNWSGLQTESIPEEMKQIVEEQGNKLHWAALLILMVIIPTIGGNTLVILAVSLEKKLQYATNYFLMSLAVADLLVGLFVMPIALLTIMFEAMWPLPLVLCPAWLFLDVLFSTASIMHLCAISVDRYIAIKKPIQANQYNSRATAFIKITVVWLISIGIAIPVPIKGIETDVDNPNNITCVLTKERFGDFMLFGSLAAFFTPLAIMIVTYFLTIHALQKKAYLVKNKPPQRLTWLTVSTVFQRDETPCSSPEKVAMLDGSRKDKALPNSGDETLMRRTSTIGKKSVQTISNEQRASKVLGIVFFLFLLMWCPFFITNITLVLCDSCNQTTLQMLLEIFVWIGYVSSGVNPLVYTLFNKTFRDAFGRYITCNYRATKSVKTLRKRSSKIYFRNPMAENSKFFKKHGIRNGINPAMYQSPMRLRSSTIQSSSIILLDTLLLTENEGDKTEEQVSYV
Sequence of D(2) dopamine receptor (Homo sapiens) (P14416 whole entry): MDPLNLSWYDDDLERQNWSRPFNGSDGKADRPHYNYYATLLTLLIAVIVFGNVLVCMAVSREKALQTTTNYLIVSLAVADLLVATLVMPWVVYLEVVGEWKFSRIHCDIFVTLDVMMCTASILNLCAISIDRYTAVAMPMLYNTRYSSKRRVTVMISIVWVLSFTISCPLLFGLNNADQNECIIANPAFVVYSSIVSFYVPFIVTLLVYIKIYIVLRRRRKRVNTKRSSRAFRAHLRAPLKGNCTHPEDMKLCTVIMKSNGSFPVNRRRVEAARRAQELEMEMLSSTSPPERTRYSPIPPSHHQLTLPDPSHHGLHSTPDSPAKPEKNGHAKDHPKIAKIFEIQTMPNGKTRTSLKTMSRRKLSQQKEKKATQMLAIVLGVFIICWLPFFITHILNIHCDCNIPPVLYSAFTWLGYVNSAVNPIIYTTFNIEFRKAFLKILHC

Compound | Binding affinity [1] [nM] | Binding affinity [3] [nM] | Binding affinity [4] [nM] | ED50 [2] [mg/kg] | also measured
CN1CCN(C(=O)C23CC(c4ccccc42)c2ccccc23)CC1 | – | – | – | > 80 | inhibition [5]: 0%
CCOC(OCC)C(=O)NC1CCN(CC23CC(c4ccccc42)c2ccc(Cl)cc23)CC1 (centres undefined) | 40 | 25 | 76 | 2.5 | –
c1ccc2c(c1)C1CC2(CN2CCC(N3CCOCC3)CC2)c2ccccc21 | – | 57 | – | 10 | inhibition [6]: 17%
O[C@@H](c1cccnc1)C1CCN(CC23CC(c4ccccc42)c2ccc(Cl)cc23)CC1 (some centres undefined) | 4 | 14 | 63 | 5 | –
CN1CCN(CC23CC(c4ccccc42)c2ccccc23)CC1 | 314 | – | – | > 80 | inhibition [7]: 14%; inhibition [8]: 18%
NCC12CC(c3ccccc31)c1ccccc12 | – | – | – | > 80 | Binding affinity [9]: inactive; Binding affinity [10]: inactive
CC(C)(C)C1(O)CCN(CC23CC(c4ccccc42)c2ccc(Cl)cc23)CC1 (centres undefined) | 1 | 5 | 7 | 0.6 | –
CN1CCN(C2=Nc3cc(Cl)ccc3Nc3ccccc32)CC1 [CLOZAPINE] | – | – | – | – | ED50 [11]: 40 mg/kg

The next lines start with results.

Binding affinity [1] [nM] | Binding affinity [3] [nM] | Binding affinity [4] [nM] | Compound | ED50 [2] [mg/kg] | also measured
21 | 222 | 349 | c1ccc2c(c1)C1CC2(CNCCCN2CCOCC2)c2ccccc21 | > 80 | –
84 | 101 | 610 | c1ccc(Cn2cncc2CCNCC23CC(c4ccccc42)c2ccccc23)cc1 | 80 | –
11 | 36 | 60 | C[C@@H]1CN(CCCNCC23CC(c4ccccc42)c2ccccc23)C[C@@H](C)O1 | > 80 | –
39 | 42 | 13 | CC[S+]([O-])c1ncccc1C1(O)CCN(CC23CC(c4ccccc42)c2ccccc23)CC1 (centres undefined) | 0.6 | –
2 | 49 | 351 | Clc1ccc2c(c1)C1(CN3CCC(Nc4ncccn4)CC3)CC2c2ccccc21 (centres undefined) | 5 | –
227 | 265 | 132 | c1cnc(NCCCNCC23CC(c4ccccc42)c2ccccc23)nc1 | > 80 | –

From ChEMBL document CHEMBL1128790, “Putative atypical antipsychotics with mixed dopaminergic (D1, D2) and serotonergic (5HT2) activity: The design evolution of ZD3638” (1995)
